{
  "source": "ChEMBL document CHEMBL5230107",
  "about": "“Anticancer boron-containing prodrugs responsive to oxidative stress from the tumor microenvironment” (Eur J Med Chem, 2020)",
  "key": {"MDA-MB-231": {"system": "MDA-MB-231", "assay": "Cytotoxicity against human MDA-MB-231 cells assessed as reduction in cell viability by Almar Blue stained fluorescence-based assay", "format": "functional"}, "A549": {"system": "A549", "assay": "Cytotoxicity against human A549 cells assessed as reduction in cell viability by Almar Blue stained fluorescence-based assay", "format": "functional"}, "HeLa [1]": {"system": "HeLa", "assay": "Cytotoxicity against human HeLa cells assessed as reduction in cell viability by Almar Blue stained fluorescence-based assay", "format": "functional"}, "NCI-H1993": {"system": "NCI-H1993", "assay": "Cytotoxicity against human NCI-H1993 cells assessed as inhibition of cell growth", "format": "functional, cell-based"}, "U-937": {"system": "U-937", "assay": "Antiproliferative activity against human U-937 cells assessed as reduction in cell viability", "format": "functional"}, "MV4-11": {"system": "MV4-11", "assay": "Antiproliferative activity against human MV4-11 cells assessed as reduction in cell viability", "format": "functional"}, "HL-60": {"system": "HL-60", "assay": "Cytotoxicity against human HL-60 cells assessed as inhibition of cell growth", "format": "functional, cell-based"}, "HeLa [2]": {"system": "HeLa", "assay": "Antiproliferative activity against human HeLa cells assessed as reduction in cell viability at 100 uM", "format": "functional"}, "B16-F10 [3]": {"system": "B16-F10", "assay": "Antitumor activity against mouse B16-F10 cells implanted in mouse assessed as increase in survival time at 0.25 mg/kg, po", "format": "functional"}, "B16-F10 [4]": {"system": "B16-F10", "assay": "Antiproliferative activity against mouse B16-F10 cells assessed as reduction in cell viability at 100 uM", "format": "functional"}, "MCF7 [5]": {"system": "MCF7", "assay": "Antitumor activity against human MCF7 cells xenografted in mouse assessed as tumor regression at 5 mg/kg, po", "format": "functional"}, "MIA PaCa-2": {"system": "MIA PaCa-2", "assay": "Cytotoxicity against human MIA PaCa-2 cells assessed as inhibition of cell growth measured after 72 hrs by MTS assay", "format": "functional, cell-based", "conditions": "MIA PaCa-2, 72 h"}, "[6]": {"assay": "Antiproliferative activity against human Nasopharyngeal carcinoma cell line assessed as reduction in cell viability measured for 72 hrs by CCK-8 assay", "format": "functional, cell-based"}, "PSN1": {"system": "PSN1", "assay": "Antiproliferative activity against human PSN1 cells assessed as reduction in cell viability measured for 72 hrs by CCK-8 assay", "format": "functional, cell-based", "conditions": "PSN1, 72 h"}, "BXPC-3": {"system": "BXPC-3", "assay": "Antiproliferative activity against human BXPC-3 cells assessed as reduction in cell viability measured for 72 hrs by CCK-8 assay", "format": "functional, cell-based", "conditions": "BXPC-3, 72 h"}, "NIH3T3 [7]": {"system": "NIH3T3", "assay": "Antiproliferative activity against mouse NIH3T3 cells assessed as reduction in cell viability", "format": "functional, cell-based"}, "DU-145 [8]": {"system": "DU-145", "assay": "Antitumor activity against human DU-145 cells implanted in mouse assessed as reduction in tumor volume at 2 mg/kg, po", "format": "functional", "set-up": "scale not given: the % may be the effect or the level left"}, "DU-145 [9]": {"system": "DU-145", "assay": "Antiproliferative activity against human DU-145 cells assessed as reduction in cell viability", "format": "functional, cell-based"}, "4T1 [10]": {"system": "4T1", "assay": "Cytotoxicity against mouse 4T1 cells assessed as reduction in cell viability", "format": "functional, cell-based"}, "NIH3T3 [11]": {"system": "NIH3T3", "assay": "Cytotoxicity against mouse NIH3T3 cells assessed as reduction in cell viability", "format": "functional, cell-based"}, "4T1 [12]": {"system": "4T1", "assay": "Antitumor activity against mouse 4T1 cells implanted in mouse assessed as reduction in tumor volume at 37 mg/kg, iv", "format": "functional", "set-up": "scale not given: the % may be the effect or the level left"}, "[13]": {"system": "Panel NCI-60 (60 carcinoma cell lines)", "assay": "Cytotoxicity against human Panel NCI-60 (60 carcinoma cell lines)", "format": "functional, cell-based"}, "[14]": {"assay": "Antiproliferative activity against human U-87 MG cells assessed as reduction in cell viability", "format": "functional, cell-based, U-87MG ATCC"}, "[15]": {"assay": "Cytotoxicity against human MRC5 cells assessed as reduction in cell viability by Almar Blue stained fluorescence-based assay", "format": "toxicity"}, "MCF7 [16]": {"system": "MCF7", "assay": "Antitumor activity against human MCF7 cells xenografted in BALB/c nude mouse assessed as tumor growth inhibition at 10 mg/kg, iv", "format": "functional", "conditions": "read-out: TGI"}, "SR": {"system": "SR", "assay": "Antiproliferative activity against human SR cells assessed as growth inhibition at 10 uM relative to control", "format": "functional", "set-up": "scale not given: the % may be the effect or the level left"}, "NCI-H460": {"system": "NCI-H460", "assay": "Antiproliferative activity against human NCI-H460 cells assessed as growth inhibition at 10 uM relative to control", "format": "functional", "set-up": "scale not given: the % may be the effect or the level left"}, "HeLa [17]": {"system": "HeLa", "assay": "Cytotoxicity against human HeLa cells assessed as inhibition of cell growth", "format": "functional, cell-based"}},
  "data": [
    {"smiles": "CCN(CC)/[N+]([O-])=N/OCc1cc2ccc(B3OC(C)(C)C(C)(C)O3)cc2oc1=O", "values": [
      {"measurement": "IC50", "setting": "MDA-MB-231", "result": 10000, "unit": "nM"},
      {"measurement": "IC50", "setting": "A549", "result": 10000, "unit": "nM"},
      {"measurement": "IC50", "setting": "HeLa [1]", "result": 10000, "unit": "nM"}
    ]},
    {"smiles": "C[C@@H](Oc1cc(-c2cnn(C3CCNCC3)c2)cnc1NC(=O)OCc1ccc(B(O)O)cc1)c1c(Cl)ccc(F)c1Cl", "values": [
      {"measurement": "IC50", "setting": "NCI-H1993", "result": 3000, "unit": "nM"}
    ]},
    {"smiles": "O=C(CCCCCCC(=O)Nc1ccccc1)NO", "note": "[VORINOSTAT]", "values": [
      {"measurement": "Activity", "setting": "U-937", "result": 20, "unit": "%"},
      {"measurement": "Activity", "setting": "MV4-11", "result": 20, "unit": "%"}
    ]},
    {"smiles": "CN(Cc1cnc2nc(N)nc(NC(=O)OCc3ccc(B(O)O)cc3)c2n1)c1ccc(C(=O)N[C@H](CCC(=O)O)C(=O)O)cc1", "values": [
      {"measurement": "IC50", "setting": "HL-60", "result": 50, "unit": "nM"}
    ]},
    {"smiles": "CC[C@@]1(O)C(=O)OCc2c1cc1n(c2=O)Cc2cc3cc(OC(=O)OCc4cc5ccc(B(O)O)cc5oc4=O)ccc3nc2-1", "values": [
      {"measurement": "Activity", "setting": "HeLa [2]", "result": 60, "unit": "%"},
      {"measurement": "Time", "setting": "B16-F10 [3]", "result": 1, "unit": "days"},
      {"measurement": "Activity", "setting": "B16-F10 [4]", "result": 60, "unit": "%"}
    ]},
    {"smiles": "COc1cccc2c1C(=O)c1c(O)c3c(c(O)c1C2=O)C[C@@](O)(C(=O)CO)C[C@@H]3O[C@H]1C[C@H](N)[C@H](O)[C@H](C)O1", "note": "[DOXORUBICIN]", "values": [
      {"measurement": "Activity", "setting": "MCF7 [5]", "result": 50, "unit": "%"},
      {"measurement": "IC50", "setting": "MIA PaCa-2", "result": 200, "unit": "nM"}
    ]},
    {"smiles": "CC[C@@]1(O)C(=O)OCc2c1cc1n(c2=O)Cc2cc3cc(O)ccc3nc2-1", "note": "[HYDROXYCAMPTOTHECIN]", "values": [
      {"measurement": "Activity", "setting": "HeLa [2]", "result": 60, "unit": "%"},
      {"measurement": "Activity", "setting": "B16-F10 [4]", "result": 60, "unit": "%"}
    ]},
    {"smiles": "Nc1ccn([C@@H]2O[C@H](CO)[C@@H](O)C2(F)F)c(=O)n1", "note": "[GEMCITABINE]", "values": [
      {"measurement": "IC50", "setting": "[6]", "result": 5, "unit": "nM"},
      {"measurement": "IC50", "setting": "PSN1", "result": 5, "unit": "nM"},
      {"measurement": "IC50", "setting": "BXPC-3", "result": 5, "unit": "nM"}
    ]},
    {"smiles": "C[C@@H](Oc1cc(-c2cnn(C3CCNCC3)c2)cnc1N)c1c(Cl)ccc(F)c1Cl", "note": "[CRIZOTINIB]", "values": [
      {"measurement": "IC50", "setting": "NCI-H1993; Homo sapiens, NCI-H1993, read-out: IC50", "result": 3000, "unit": "nM"}
    ]},
    {"smiles": "CC1(COC(=O)OCc2ccc(B3OCCCO3)cc2)COC(/C=C/c2ccccc2)OC1", "note": "(centres undefined)", "values": [
      {"measurement": "IC50", "setting": "NIH3T3 [7]", "result": 182000, "unit": "nM"},
      {"measurement": "Activity", "setting": "DU-145 [8]", "result": 75, "unit": "%"},
      {"measurement": "IC50", "setting": "DU-145 [9]", "result": 48000, "unit": "nM"}
    ]},
    {"smiles": "CCN(CC)C(=S)SCc1ccc(B2OC(C)(C)C(C)(C)O2)cc1", "values": [
      {"measurement": "IC50", "setting": "4T1 [10]", "result": 1000, "unit": "nM"},
      {"measurement": "IC50", "setting": "NIH3T3 [11]", "result": 6000, "unit": "nM"},
      {"measurement": "Activity", "setting": "4T1 [12]", "result": 80, "unit": "%"}
    ]},
    {"smiles": "COc1cc(CBr)c(B2OC(C)(C)C(C)(C)O2)c(CBr)c1", "values": [
      {"measurement": "IC50", "setting": "[13]", "result": 10000, "unit": "nM"}
    ]},
    {"smiles": "CC[C@@]1(O)C(=O)OCc2c1cc1n(c2=O)Cc2cc3ccccc3nc2-1", "note": "[CAMPTOTHECIN]", "values": [
      {"measurement": "IC50", "setting": "[14]", "result": 250, "unit": "nM"}
    ]},
    {"smiles": "CC(=O)O[C@H]1C(=O)[C@@]2(C)[C@H]([C@H](OC(=O)c3ccccc3)[C@]3(O)C[C@H](OC(=O)[C@H](O)[C@@H](NC(=O)c4ccccc4)c4ccccc4)C(C)=C1C3(C)C)[C@]1(OC(C)=O)CO[C@@H]1C[C@@H]2O", "note": "[PACLITAXEL]", "values": [
      {"measurement": "IC50", "setting": "[15]", "result": 25000, "unit": "nM"},
      {"measurement": "inhibition in vivo at 10 mg/kg", "setting": "MCF7 [16]", "result": 60, "unit": "%"}
    ]},
    {"smiles": "CC1(C)OB(c2ccc(C[N+](C)(CCCl)CCCl)cc2)OC1(C)C.[Br-]", "values": [
      {"measurement": "Activity", "setting": "SR", "result": 85, "unit": "%"},
      {"measurement": "Activity", "setting": "NCI-H460", "result": 85, "unit": "%"}
    ]},
    {"smiles": "COc1cccc2c1C(=O)c1c(O)c3c(c(O)c1C2=O)C[C@@](O)(C(=O)CO)C[C@@H]3O[C@H]1C[C@H](NCC(=O)OCc2cc(C)cc(COC(=O)c3ccc(C(=C(c4ccccc4)c4ccccc4)c4ccccc4)cc3)c2OCc2ccc(B3OC(C)(C)C(C)(C)O3)cc2)[C@H](O)[C@H](C)O1", "values": [
      {"measurement": "IC50", "setting": "HeLa [17]", "result": 2000, "unit": "nM"}
    ]},
    {"smiles": "O=C(CCCCCCC(=O)Nc1ccccc1)NOCc1ccc(B(O)O)cc1", "values": [
      {"measurement": "Activity", "setting": "U-937", "result": 20, "unit": "%"},
      {"measurement": "Activity", "setting": "MV4-11", "result": 20, "unit": "%"}
    ]},
    {"smiles": "COc1cccc2c1C(=O)c1c(O)c3c(c(O)c1C2=O)C[C@@](O)(C(=O)CO)C[C@@H]3O[C@H]1C[C@H](NC(=O)OCc2ccc(B3OC(C)(C)C(C)(C)O3)cc2)[C@H](O)[C@H](C)O1", "values": [
      {"measurement": "Activity", "setting": "MCF7 [5]", "result": 30, "unit": "%"}
    ]}
  ]
}
